Tests used:
C. albicans (R02 strain) = assay: microbe, parasite or virus in culture; assay type: cell-based, Candida albicans; details: C. albicans R02; 0.5 × MIC of PDAP20 or 0.5 × MIC50 of fluconazole; 30 passages; duplicates
Method: Drug resistance studies. Drug resistance was induced by treating the C. albicans (R02 strain) repeatedly with antifungal agents. […]
albicans were tested for 30 passages of growth, which is long enough and adopted by many studies. C. albicans exposed to the 1/2 MIC concentration at the particular passage were re-grown to a logarithmic growth phrase and re-used for the subsequent passage’s MIC measurement for the same antifungal agent. Drug-resistant behavior of C. albicans was evaluated by recording the changes in the MIC compared to the original passage. All measurements were performed in duplicates. […]

C. albicans (K1 strain) = assay: Intracellular ROS detection (DCFH fluorescence); assay type: cell-based, Candida albicans; details: DCF fluorescence, positive control 40 mM H2O2; rises with time and PDAP20 concentration
Method: Energy depletion analysis. For energy depletion experiments, cell suspension of C. albicans (K1 strain) at 3.0 × 10^6 CFU/mL was pretreated with RPMI containing 5 mM NaN 3 for 1 h. For antifungal efficiency assay, a fresh cell suspension pretreated or non-pretreated with NaN 3 were incubated with 50 μg/mL PDAP 20 or without an antifungal agent (as energy depletion control) for 24 h. The fresh cell suspension without antifungal agents before and after incubation with NaN 3 for 24 h were used as the controls, respectively. The suspensions were diluted and plated on YPD agar. The plates were incubated at 30 °C for 24 h and colony amounts were counted. The cell viability after incubation at 4 °C with 50 μg/mL PDAP 20 or without an antifungal agent (as positive control) was measured using the same method. […]
For flow cytometry experiment, a fresh cell suspension pretreated or non-pretreated with NaN 3 was incubated with 50 μg/mL CPM-PDAP 20 for 1 h and 2 h, respectively. Fungal cells were washed by PBS to remove polymers, and 5.0 × 10^4 cells were counted and anaysized. The polymer uptake was calculated by flow cytometry (Backman). Furthermore, cell suspensions were incubated with 10 μg/mL PI for 10 min for calculated PI uptake. […]
DNA fragmentation assay. Apoptosis induced DNA fragments in C. albicans cells were analyzed using the TdT-mediated dUTP Nick-End Labeling (TUNEL) method. […]

[1] = test system: C. albicans biofilm formation; assay: Inhibition of biofilm formation (MTT); assay type: cell-based, Candida albicans; details: RPMI, 37 °C, 48 h, inhibits 80% of biofilm formation
Method: fresh non-treated cell suspension was used as a control. The bright field and FITC fluorescence were collected under 100× oil immersion lenses, with representative areas in the images electronically amplified sixfold.
Anti-biofilms. This study was conducted in 96-well plates (flat bottom and tissue-culture treated) by following the reported protocol with slight modifications. On each plate, wells containing RPMI only and cells in medium without any antifungal agent were used as the negative and positive control, respectively.
For biofilm formation: Freshly cultured fungal cells were collected to prepare the working suspension at 1.0 × 10^6 CFU/mL in RPMI. A two-fold serial dilution for each antifungal agent was prepared using a corresponding medium in a 96-well plate to give 100 µL of polymer solution in each well. 100 µL of the working suspension was added to each […]
followed by addition of 100 µL MTT solution (1 mg/mL). The MTT assay protocol was the same as the above mentioned protocol in fibroblast cell toxicity assay. This value was calculated from [% biofilm growth = (A polymer – Ablank)/(Acontrol – Ablank) × 100] and plotted against polymer concentration to give the dose-response graphs for inhibition of biofilm formation for each antifungal agent. The SMIC 80 value is the minimum concentration of a given agent that is necessary to inhibit 80% of fungal biofilm formation. […]

BALB/c mice eyes = assay type: in vivo, mouse; details: 15 mg mL^−1 eye drops every 5 min for 1 h, then every 30 min for 7 h; male BALB/c, n = 3
Method: Medicine (Accreditation number of the laboratory: SHDSYY-2021-1729). The experiment
method. […] AmpB was
(2.5% DMSO in final solution).
The organs (kidney, liver, and
14th day for histological analysis and blood biochemistry analysis.
30 min during the next 7 h.
C. albicans biofilm formation on contact lenses. The contact lenses (Biomedic ®, Cooper
Then the discs were transferred to a
and incubated at rt with shaking at 100 rpm. After 6 hours of incubation, the suspension was […]

poly(DL‐diaminopropionic acid) [PDAP20]
Development of drug resistance on continuous treatment (C. albicans (R02 strain)): didn't acquire resistance
Intracellular ROS level (C. albicans (K1 strain)): higher than that of the hydrogen peroxide‐treated fungal cells
Concentration that resists biofilm formation (SMIC80) [1]: 6.3 µg/mL
Corneal histology (H&E) after topical administration (BALB/c mice eyes): no obvious toxicity
